Values joined by “and” are separate entries in the source; they are usually repeats but may differ in a detail not shown here. Equal values may be shown once.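 Where inhibition never reached the appropriate level, the endpoint shown equals the highest concentration tested. Otherwise, values were interpolated linearly from a five-concentration, 48-hour dose response in 96-well plates. GI50 = concentration required for 50% inhibition of growth. TGI marks complete inhibition of growth.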
How the values were obtained:
Experiment in all cases: NCI-60 cell line screen, 48 h
[1] = test system: MDA-N
[2] = test system: HOP-18 NSCLC
[3] = test system: M19-MEL melanoma
[4] = test system: DLD-1 colon
[5] = test system: LXFL 529 NSCLC
[6] = test system: KM20L2 colon
[7] = test system: DMS 114 small cell lung
[8] = test system: XF 498 CNS
[9] = test system: RXF-631 renal
[10] = test system: SN12K1 renal

| SMILES | TGI [1] | TGI [2] | TGI [3] [µM] | TGI [4] [µM] | TGI [5] [µM] | TGI [6] | TGI [7] [µM] | TGI [8] | further results |
| --- | --- | --- | --- | --- | --- | --- | --- | --- | --- |
| NC(CO)C(=O)NCC(=O)O (stereo not drawn) | > 100 µM | – | – | – | – | – | – | – | – |
| CCOP(=O)(CC(=O)C1=C(O)C(CCCCNC(=O)OC(C)(C)C)N(Cc2ccccc2)C1=O)OCC (stereo not drawn) | – | > 100 µM | > 100 | > 100 | > 100 | > 100 µM | > 100 | – | – |
| COc1cc2c(cc1OC)[C@@H]([C@H](O)c1ccccc1)NCC2 | – | > 100 µM | > 100 | > 100 | > 100 | > 100 µM | > 100 | > 100 µM | TGI [9]: > 100 µM |
| COc1cc2c(cc1O)C(c1cc(O)c(O)c(OC)c1)C(O)(C(=O)O)C(CO)C2O (stereo not drawn) | 30.9 µM | – | – | – | – | – | – | – | – |
| NCCN1C(=O)c2ccccc2C1(O)c1ccc(Cl)cc1 (stereo not drawn) | 32.7 µM | – | – | – | – | – | – | – | – |
| Clc1ccc(C2=NOC3C4CCC(C4)C23)cc1 (stereo not drawn) | – | > 100 µM | > 100 | > 100 | > 100 | – | – | – | – |
| Nc1ncnc2nn(C3OC(CO)C(O)C3O)nc12 (stereo not drawn) | > 82.6 µM | – | – | – | – | – | – | – | – |
| O=c1cc(O)c2c(O)cc(O)cc2o1 | > 100 µM | – | – | – | – | – | – | – | – |
| Cc1ccc(S(=O)(=O)SCc2ccccc2)cc1 | – | > 100 µM | > 77.4 | 21.7 | 47.4 | 43.9 µM | 47.8 | 95.2 µM | – |
| Nc1nc(-c2cc(-c3cccc4ccccc34)nc(N)n2)cc(-c2cccc3ccccc23)n1 | > 100 µM | – | – | – | – | – | – | – | – |
| CN1C(=O)C(=CN(C)c2ccccc2)C(=O)N(C)C1=O | – | > 100 µM | > 100 | > 100 | > 100 | > 100 µM | > 100 | > 100 µM | – |
| Cc1ccc(C)c2c(N=Nc3ccccc3[N+](=O)[O-])c(O)[nH]c12 | > 100 µM | – | – | – | – | – | – | – | – |
| COc1ccc2c(c1)CCN1C3=C(CCC3)C(=O)C[C@@H]21 | – | > 100 µM | > 100 | – | > 100 | > 100 µM | > 100 | > 100 µM | – |
| O=C(Sc1sc(=S)sc1SC(=O)c1ccccc1)c1ccccc1 | – | > 100 µM | 51 | – | > 100 | > 100 µM | > 100 | > 100 µM | – |
| Cc1cc(NS(=O)(=O)c2ccc(Nc3c4ccccc4nc4c(C(=O)Nc5ccc(S(=O)(=O)N=C(N)N)cc5)ccc(Cl)c34)cc2)no1 | – | > 100 µM | > 100 | > 100 | > 100 | > 100 µM | 68.9 | 90.9 µM | – |
| C#C/C=C/CC1OC(C(Br)CC)CC(Br)C2CC1O2 (stereo not drawn) | > 100 µM | – | – | – | – | – | – | – | – |
| CCCC#CCOC(=O)c1cc([N+](=O)[O-])cc([N+](=O)[O-])c1 | > 100 µM | – | – | – | – | – | – | – | – |

| SMILES | TGI [1] | TGI [2] | TGI [3] [µM] | TGI [4] [µM] | TGI [5] [µM] | TGI [6] | TGI [7] [µM] | TGI [8] | further results |
| --- | --- | --- | --- | --- | --- | --- | --- | --- | --- |
| Cc1cc(NS(=O)(=O)c2ccc(NC(=O)COC(=O)c3cccc4c(=O)c5ccccc5[nH]c34)cc2)no1 | – | – | > 100 | > 100 | > 100 | > 100 µM | > 100 | > 100 µM | – |
| Brc1ccc(C2SCc3nc4ccccc4n32)cc1 (stereo not drawn) | – | 78.5 µM | 27 | 22.3 | 22.2 | – | – | 24.5 µM | – |
| O=C1CCC2(c3ccccc3)Nc3ccc(Cl)cc3N12 (stereo not drawn) | – | – | > 100 | > 100 | > 100 | > 100 µM | > 100 | > 100 µM | TGI [9]: > 100 µM |
| Cc1cc2c(=O)[nH]c(N)nc2nc1C | > 100 µM | – | – | – | – | – | – | – | – |
| O=S(=O)(NCCO)c1cc[c]([Sb](=[O])([OH])[OH])cc1 | > 100 µM | – | – | – | – | – | – | – | GI50 [1]: > 100 µM |
| CCN(CC)CCCNc1[nH]ncc2c(C)c3nc4ccccc4c3cc12 | 2.39 µM and 3.99 µM | – | – | – | – | – | – | – | GI50 [1]: 1.19 µM |
| O=C(NC(=O)c1cc2cc(Br)cc(Br)c2oc1=O)Oc1ccccc1 | – | > 100 µM | > 100 | > 100 | > 100 | > 100 µM | > 100 | > 100 µM | – |
| Oc1c2c(c(O)c3ccccc13)C1(N=N2)c2ccccc2Oc2ccccc21 | 21.8 µM | – | – | – | – | – | – | – | – |
| O=C1N[C@H]2[C@H](O)[C@H](O)[C@@H](O)[C@H](O)[C@@H]2c2cc3c(c(O)c21)OCO3 | 0.185 µM and 0.128 µM | 0.653 µM | – | 0.422 | 4.13 | 3.06 µM | – | – | GI50 [2]: 0.377 µM and 1.99 µM; GI50 [3]: 0.276 µM and 0.463 µM; GI50 [8]: 0.25 µM and 1.24 µM; GI50 [4]: 0.282 µM and 1.94 µM; GI50 [5]: 0.248 µM; GI50 [9]: 0.288 µM; TGI [9]: 4.33 µM; GI50 [6]: 0.35 µM and 1.76 µM; TGI [10]: 0.36 µM; GI50 [7]: 0.241 µM and 0.604 µM; GI50 [1]: 0.025 µM |
| Cc1ccc2c(CC(=O)O)cc(=O)oc2c1 | – | > 100 µM | > 100 | > 100 | > 100 | > 100 µM | > 100 | 9.18 µM | – |
| CCN(CC)CCC(=O)/C=C/c1ccc(C)cc1 | – | 31.5 µM | 25.4 | 21.9 | 20.6 | 30 µM | 24.4 | 25.1 µM | TGI [9]: 35.1 µM |
| CCc1ncnc2cc(OCC3CO3)c(OC)cc12 (stereo not drawn) | 21.8 µM | – | – | – | – | – | – | – | – |
| C[n+]1c(/C=C/c2ccc(/C=N/NC(=O)c3ccc(C(=O)N/N=C/c4ccc(/C=C/c5cn6ccccc6[n+]5C)cc4)cc3)cc2)cn2ccccc21 | > 100 µM | – | – | – | – | – | – | – | – |
| COc1cc2ccc(CC(N)=O)cc2cc1OC | – | > 100 µM | > 100 | – | > 100 | > 100 µM | > 100 | > 100 µM | TGI [9]: > 100 µM |
| CC(=O)NC1=C(Sc2ccc(Cl)cc2)C(=O)c2ccccc2C1=O | 3.17 µM | – | – | – | – | – | – | – | – |
| C[C@@](O)(/C=C/[C@H]1CC=CC(=O)O1)[C@@H](C[C@@H](O)\C=C/C=C\C=C\CO)OP(=O)(O)O | 8.08 µM | 28.5 µM and 127 µM | 25.6 | 95.9 | – | 6.55 µM and 3.17 µM | 82.6 | 101 µM and 113 µM | GI50 [2]: 15.9 µM and 42.2 µM; GI50 [6]: 1.32 µM; GI50 [10]: 2.69 µM; TGI [10]: 30.7 µM and 19.3 µM |

Source: PubChem BioAssay (NCI)
